Consider four compounds from patent US20230265151A1, “GIP/GLP1 CO-AGONIST COMPOUNDS” (priority 2020, published 2023).

Like-named read-outs stand apart in the source and are kept apart here. Where a SMILES comes first, the peptide text is derived from it. Side-chain parts run from the residue outwards. [ ]: non-standard residue; d: D form. The star is where a group is joined. αMePhe(2-F) = C[C@](N)(Cc1ccccc1F)C(=O)O; C14 diacid = O=C(O)CCCCCCCCCCCCC(=O)*; αMeY = C[C@](N)(Cc1ccc(O)cc1)C(=O)O; αMeL = CC(C)C[C@](C)(N)C(=O)O; Orn = NCCC[C@H](N)C(=O)O; AEEA = NCCOCCOCC(=O)O; Aib = CC(C)(N)C(=O)O

Holding throughout (assay type): cell-based
For one test, the target named is T1, hGCGR (Homo sapiens, UniProt P47871).
T1 construct: expressed in transfected cells
T1 sequence (P47871 26-477): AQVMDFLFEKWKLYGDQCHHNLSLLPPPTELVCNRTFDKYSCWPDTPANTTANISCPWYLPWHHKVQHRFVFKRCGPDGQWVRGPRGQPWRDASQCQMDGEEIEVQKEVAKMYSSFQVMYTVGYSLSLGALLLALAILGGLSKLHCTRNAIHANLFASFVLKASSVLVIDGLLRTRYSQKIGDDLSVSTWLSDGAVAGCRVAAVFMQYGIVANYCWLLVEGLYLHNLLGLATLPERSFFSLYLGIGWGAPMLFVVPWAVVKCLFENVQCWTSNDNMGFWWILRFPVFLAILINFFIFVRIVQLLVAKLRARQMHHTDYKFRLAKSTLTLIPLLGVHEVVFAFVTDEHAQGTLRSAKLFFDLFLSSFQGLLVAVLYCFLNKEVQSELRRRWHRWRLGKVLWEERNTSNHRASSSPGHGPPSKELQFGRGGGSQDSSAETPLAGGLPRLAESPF
Put plainly: Functional cAMP formation (HTRF) in HEK-293 clonal cells expressing hGCGR, 0.1% bovine casein, without or with 1.0% human serum albumin. In outline:
(§1)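 Readings of the HTRF 665/620 nm ratio, which falls as cAMP rises, were converted to nM cAMP using a standard curve after 30 min peptide exposure at 37° C.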

In the next test the target is T2, hGIPR (Homo sapiens, UniProt P48546).
T2 construct: expressed in transfected cells
T2 sequence (P48546 22-466): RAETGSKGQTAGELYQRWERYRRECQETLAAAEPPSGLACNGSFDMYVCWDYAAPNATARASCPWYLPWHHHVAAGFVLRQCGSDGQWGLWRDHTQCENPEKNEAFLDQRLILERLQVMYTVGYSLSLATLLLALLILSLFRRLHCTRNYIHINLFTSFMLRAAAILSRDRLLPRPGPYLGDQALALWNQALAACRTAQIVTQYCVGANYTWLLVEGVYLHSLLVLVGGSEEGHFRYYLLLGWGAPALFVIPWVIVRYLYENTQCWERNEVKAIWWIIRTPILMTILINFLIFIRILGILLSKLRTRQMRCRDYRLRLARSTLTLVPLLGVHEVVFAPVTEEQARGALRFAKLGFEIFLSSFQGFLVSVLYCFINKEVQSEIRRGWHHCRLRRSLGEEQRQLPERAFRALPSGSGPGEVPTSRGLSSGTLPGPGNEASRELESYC
Kind of test: Functional cAMP formation (HTRF) in HEK-293 clonal cells expressing hGIPR, 0.1% bovine casein, without or with 1.0% human serum albumin. Conditions: for Emax: read-out: hGIPR Emax, % ± SEM; for EC50: cAMP, 0.1% bovine casein (no human serum albumin), geometric mean. A digest of the protocol:
as §1
For orientation: cAMP levels reflect the balance of adenylyl cyclase and phosphodiesterase activity.

Another test deals with hGLP-1R (Homo sapiens, UniProt P43220). Kind of test: Functional cAMP formation (HTRF) in HEK-293 clonal cells expressing hGLP-1R, 0.1% bovine casein, without or with 1.0% human serum albumin. The following applies: for EC50: cAMP, 0.1% bovine casein (no human serum albumin), geometric mean. Also noted: expressed in transfected cells. In outline:
as §1

Where [1] appears, read: 0.1% bovine casein and 1.0% human serum albumin, 37° C., geometric mean, read-out: hGCGR EC50, nM (SEM, n).
Where [2] appears, read: HEK293, 0.1% bovine casein and 1.0% human serum albumin, 37° C., percent of maximal response to GIP(1-42)NH2.
The mark [3] stands for this setting: cAMP, incubated at 37° C., 0.1% bovine casein (no human serum albumin), geometric mean, read-out: hGCGR EC50, nM (SEM, n).
The mark [4] stands for this setting: incubated at 37° C., read-out: hGIPR EC50, nM (SEM, n).
The mark [5] stands for this setting: HEK293, 0.1% bovine casein and 1.0% human serum albumin, 37° C., percent of maximal response to GLP-1(7-36)NH2, read-out: hGLP-1R Emax, % ± SEM.
Setting [6] is: incubated at 37° C., read-out: hGLP-1R EC50, nM (SEM, n).

Chain of hGLP-1R (P43220 24-463): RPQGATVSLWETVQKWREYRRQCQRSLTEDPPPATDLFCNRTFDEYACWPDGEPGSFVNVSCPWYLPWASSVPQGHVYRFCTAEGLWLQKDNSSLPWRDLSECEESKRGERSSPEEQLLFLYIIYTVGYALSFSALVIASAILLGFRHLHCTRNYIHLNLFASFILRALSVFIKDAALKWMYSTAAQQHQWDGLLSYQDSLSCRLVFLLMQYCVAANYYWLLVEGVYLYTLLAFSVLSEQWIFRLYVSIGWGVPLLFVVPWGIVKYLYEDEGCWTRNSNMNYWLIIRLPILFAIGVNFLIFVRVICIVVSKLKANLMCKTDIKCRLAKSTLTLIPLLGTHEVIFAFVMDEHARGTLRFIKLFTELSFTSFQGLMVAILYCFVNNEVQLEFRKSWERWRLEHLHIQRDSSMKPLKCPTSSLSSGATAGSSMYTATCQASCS

For `CC[C@H](C)[C@H](NC(=O)[C@H](CCCN)NC(=O)[C@H](CC(=O)O)NC(=O)[C@H](CC(C)C)NC(=O)[C@](C)(CC(C)C)NC(=O)[C@@H](NC(=O)[C@H](CO)NC(=O)[C@H](Cc1ccc(OC)cc1)NC(=O)[C@H](CC(=O)O)NC(=O)[C@H](CO)NC(=O)[C@@H](NC(=O)[C@](C)(Cc1ccccc1F)NC(=O)[C@@H](NC(=O)CNC(=O)[C@H](CCC(=O)O)NC(=O)C(C)(C)NC(=O)[C@@H](N)Cc1ccc(O)cc1)[C@@H](C)O)[C@@H](C)O)[C@@H](C)CC)C(=O)N[C@@H](C)C(=O)N[C@@H](CCC(N)=O)C(=O)NC(C)(C)C(=O)N[C@@H](CCCCNC(=O)COCCOCCNC(=O)COCCOCCNC(=O)CCCCCCCCCCCCC(=O)O)C(=O)N[C@@H](Cc1ccccc1)C(=O)N[C@H](C(=O)N[C@H](CCC(=O)O)C(=O)N[C@@](C)(Cc1ccc(O)cc1)C(=O)N[C@@H](CC(C)C)C(=O)N[C@H](C(=O)N[C@@H](CCC(=O)O)C(=O)NCC(=O)NCC(=O)N1CCC[C@H]1C(=O)N[C@@H](CO)C(=O)N[C@@H](CO)C(=O)NCC(=O)N[C@@H](C)C(=O)N1CCC[C@H]1C(=O)N1CCC[C@H]1C(=O)N1CCC[C@H]1C(=O)N[C@@H](CO)C(=O)N[C@@H](CCCCNC(=O)COCCOCCNC(=O)COCCOCCNC(=O)CCCCCCCCCCCCC(=O)O)C(N)=O)[C@@H](C)CC)[C@@H](C)CC` [Example 268] (H-Y[Aib]EGT[αMePhe(2-F)]TSDY(Me)SI[αMeL]LD[Orn]IAQ[Aib]K([AEEA-AEEA-C14 diacid])FI[dE][αMeY]LIEGGPSSGAPPPSK([AEEA-AEEA-C14 diacid])-NH2), the EC50 (commonly the concentration needed to bring the measured effect to its halfway point) at hGCGR (setting [1]) is greater than 9950 nM; on hGCGR (cAMP, 37° C., 0.1% bovine casein (no human serum albumin), geometric mean, read-out: hGCGR EC50, nM (SEM, n)), greater than 9950 nM; on hGIPR (37° C., read-out: hGIPR EC50, nM (SEM, n)), 0.0265 nM. Further, the Emax (usually the greatest response seen or fitted, relative to the assay's reference) on hGIPR (setting [2]) is 92.3%; at hGLP-1R (HEK293, cAMP, 37° C., 0.1% bovine casein, percent of maximal response to GLP-1(7-36)NH2, arithmetic mean, read-out: hGLP-1R Emax, % ± SEM), 112%.

With `CC[C@H](C)[C@H](NC(=O)[C@H](CC(C)C)NC(=O)[C@](C)(Cc1ccc(O)cc1)NC(=O)[C@H](CCCCNC(=O)COCCOCCNC(=O)COCCOCCNC(=O)CC[C@H](NC(=O)CCCCCCCCCOc1ccc(C(=O)O)cc1)C(=O)O)NC(=O)[C@@H](NC(=O)[C@H](Cc1ccccc1)NC(=O)[C@H](CCCN)NC(=O)C(C)(C)NC(=O)[C@H](CCC(N)=O)NC(=O)[C@H](C)NC(=O)[C@H](CCC(N)=O)NC(=O)[C@H](CCCN)NC(=O)[C@H](CC(=O)O)NC(=O)[C@H](CC(C)C)NC(=O)[C@](C)(CC(C)C)NC(=O)[C@@H](NC(=O)C(C)(C)NC(=O)[C@@H](NC(=O)[C@H](CC(=O)O)NC(=O)[C@H](CO)NC(=O)[C@@H](NC(=O)[C@](C)(Cc1ccccc1F)NC(=O)[C@@H](NC(=O)CNC(=O)[C@H](CCC(=O)O)NC(=O)C(C)(C)NC(=O)[C@@H](N)Cc1ccc(O)cc1)[C@@H](C)O)[C@@H](C)O)C(C)C)[C@@H](C)CC)[C@@H](C)CC)C(=O)N[C@@H](CCCCNC(=O)COCCOCCNC(=O)COCCOCCNC(=O)CC[C@H](NC(=O)CCCCCCCCCOc1ccc(C(=O)O)cc1)C(=O)O)C(=O)NCC(=O)NCC(=O)N1CCC[C@H]1C(=O)N[C@@H](CO)C(=O)N[C@@H](CO)C(=O)NCC(=O)N[C@@H](C)C(=O)N1CCC[C@H]1C(=O)N1CCC[C@H]1C(=O)N1CCC[C@H]1C(=O)N[C@@H](CO)C(N)=O` [Example 447], the EC50 at hGCGR (hGCGR EC50, nM (SEM, n), cAMP, 37° C., 0.1% bovine casein (no human serum albumin), geometric mean) is greater than 9950 nM; at hGCGR (hGCGR EC50, nM (SEM, n), cAMP, 37° C., 0.1% bovine casein and 1.0% human serum albumin, geometric mean (SEM, n)), greater than 9950 nM; at hGIPR (hGIPR EC50, nM (SEM, n), 37° C.) it was 0.017 nM; on hGLP-1R (hGLP-1R EC50, nM (SEM, n), 37° C.) it was 0.219 nM. The Emax on hGLP-1R (HEK293, read-out: hGLP-1R Emax, % ± SEM, cAMP, 37° C., 0.1% bovine casein, percent of maximal response to GLP-1(7-36)NH2, arithmetic mean) came out at 105%.

As for `CC[C@H](C)[C@H](NC(=O)[C@H](CC(C)C)NC(=O)[C@](C)(Cc1ccc(O)cc1)NC(=O)[C@@H](CCC(=O)O)NC(=O)[C@@H](NC(=O)[C@H](Cc1ccccc1)NC(=O)[C@H](CCC(=O)O)NC(=O)C(C)(C)NC(=O)[C@H](CCC(N)=O)NC(=O)[C@H](C)NC(=O)[C@H](CCCCNC(=O)COCCOCCNC(=O)COCCOCCNC(=O)CC[C@H](NC(=O)CCCCCCCCCCCCC(=O)O)C(=O)O)NC(=O)[C@H](CCCN)NC(=O)[C@H](CC(=O)O)NC(=O)[C@H](CC(C)C)NC(=O)[C@](C)(CC(C)C)NC(=O)[C@@H](NC(=O)C(C)(C)NC(=O)[C@H](Cc1ccc(O)cc1)NC(=O)[C@H](CC(=O)O)NC(=O)[C@H](CO)NC(=O)[C@@H](NC(=O)[C@](C)(Cc1ccccc1F)NC(=O)[C@@H](NC(=O)CNC(=O)[C@H](CCC(=O)O)NC(=O)C(C)(C)NC(=O)[C@@H](N)Cc1ccc(O)cc1)[C@@H](C)O)[C@@H](C)O)[C@@H](C)CC)[C@@H](C)CC)C(=O)N[C@@H](CCC(=O)O)C(=O)NCC(=O)NCC(=O)N1CCC[C@H]1C(=O)N[C@@H](CO)C(=O)N[C@@H](CO)C(=O)NCC(=O)N[C@@H](C)C(=O)N1CCC[C@H]1C(=O)N1CCC[C@H]1C(=O)N1CCC[C@H]1C(=O)N[C@@H](CO)C(=O)N[C@@H](CCCCNC(=O)COCCOCCNC(=O)COCCOCCNC(=O)CC[C@H](NC(=O)CCCCCCCCCCCCC(=O)O)C(=O)O)C(N)=O` [Example 232], the EC50 was greater than 9950 nM at hGCGR (setting [1]), greater than 9950 nM at hGCGR (setting [3]), 0.0192 nM at hGIPR (setting [4]) and 0.565 nM on hGLP-1R (setting [6]). Further, the maximum response (Emax) on hGIPR (setting [2]) was found to be 91.5%; at hGLP-1R (setting [5]), 95.4%.

On to `CC[C@H](C)[C@H](NC(=O)[C@H](CCCN)NC(=O)[C@H](CC(=O)O)NC(=O)[C@H](CC(C)C)NC(=O)[C@](C)(CC(C)C)NC(=O)[C@@H](NC(=O)[C@H](CO)NC(=O)[C@H](Cc1ccncc1)NC(=O)[C@H](CC(=O)O)NC(=O)[C@H](CO)NC(=O)[C@@H](NC(=O)[C@](C)(Cc1ccccc1F)NC(=O)[C@@H](NC(=O)CNC(=O)[C@H](CCC(=O)O)NC(=O)C(C)(C)NC(=O)[C@@H](N)Cc1ccc(O)cc1)[C@@H](C)O)[C@@H](C)O)[C@@H](C)CC)C(=O)N[C@@H](C)C(=O)N[C@@H](CCC(N)=O)C(=O)NC(C)(C)C(=O)N[C@@H](CCCCNC(=O)COCCOCCNC(=O)COCCOCCNC(=O)COCCOCCNC(=O)CC[C@H](NC(=O)CCCCCCCCCCCCC(=O)O)C(=O)O)C(=O)N[C@@H](Cc1ccccc1)C(=O)N[C@H](C(=O)N[C@H](CCC(=O)O)C(=O)N[C@@](C)(Cc1ccc(O)cc1)C(=O)N[C@@H](CC(C)C)C(=O)N[C@H](C(=O)N[C@@H](CCC(=O)O)C(=O)NCC(=O)NCC(=O)N1CCC[C@H]1C(=O)N[C@@H](CO)C(=O)N[C@@H](CO)C(=O)NCC(=O)N[C@@H](C)C(=O)N1CCC[C@H]1C(=O)N1CCC[C@H]1C(=O)N1CCC[C@H]1C(=O)N[C@@H](CO)C(=O)N[C@@H](CCCCNC(=O)COCCOCCNC(=O)COCCOCCNC(=O)COCCOCCNC(=O)CC[C@H](NC(=O)CCCCCCCCCCCCC(=O)O)C(=O)O)C(N)=O)[C@@H](C)CC)[C@@H](C)CC` [Example 228], for which the EC50 was greater than 9950 nM at hGCGR (setting [1]), greater than 9950 nM on hGCGR (setting [3]), 0.0232 nM at hGIPR (setting [4]) and 1.34 nM on hGLP-1R (setting [6]). Also, the Emax was 83.3% at hGIPR (setting [2]); 110% on hGIPR (HEK293, percent of maximal response to GIP(1-42)NH2, 37° C., 0.1% bovine casein, arithmetic mean); 119% on hGLP-1R (setting [5]); 91.1% on hGLP-1R (HEK293, percent of maximal response to GLP-1(7-36)NH2, 37° C., 0.1% bovine casein, arithmetic mean, read-out: hGLP-1R Emax, % ± SEM).
